Data on two compounds can be found in patent publication US20040086886A1, “Polymorphisms associated with cardiac arrythmia” (priority 2003, published 2004).

The target of data set [1] is wild type MiRP1/HERG channels (Homo sapiens, UniProt Q12809). The data set is described as follows: cell-based. The conditions noted are these: Ki (equilibrium inhibition constant), wild type MiRP1.
In data set [2] the target is wild type MiRP1/HERG channels (Homo sapiens, UniProt Q12809+Q9Y6J6). The data set is described as follows: cell-based.
Data set [3] concerns the target I57T-MiRP1/HERG channels (Homo sapiens, UniProt Q12809). The data set is described as follows: cell-based.
In data set [4] the target is Q9E-MiRP1 channels (Homo sapiens, UniProt Q12809+Q9Y6J6, Q9E). The conditions noted are these: Abbott et al. (1999); cited from earlier work.

Structures are written as SMILES. pKi: −log10 of the molar value.

Q9E-MiRP1 channels, sequence (Q9Y6J6 whole entry Q9E): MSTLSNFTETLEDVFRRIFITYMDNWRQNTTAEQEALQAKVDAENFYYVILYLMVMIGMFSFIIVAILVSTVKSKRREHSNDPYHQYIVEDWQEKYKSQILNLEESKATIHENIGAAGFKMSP
Q9E-MiRP1 channels, sequence (Q12809 whole entry): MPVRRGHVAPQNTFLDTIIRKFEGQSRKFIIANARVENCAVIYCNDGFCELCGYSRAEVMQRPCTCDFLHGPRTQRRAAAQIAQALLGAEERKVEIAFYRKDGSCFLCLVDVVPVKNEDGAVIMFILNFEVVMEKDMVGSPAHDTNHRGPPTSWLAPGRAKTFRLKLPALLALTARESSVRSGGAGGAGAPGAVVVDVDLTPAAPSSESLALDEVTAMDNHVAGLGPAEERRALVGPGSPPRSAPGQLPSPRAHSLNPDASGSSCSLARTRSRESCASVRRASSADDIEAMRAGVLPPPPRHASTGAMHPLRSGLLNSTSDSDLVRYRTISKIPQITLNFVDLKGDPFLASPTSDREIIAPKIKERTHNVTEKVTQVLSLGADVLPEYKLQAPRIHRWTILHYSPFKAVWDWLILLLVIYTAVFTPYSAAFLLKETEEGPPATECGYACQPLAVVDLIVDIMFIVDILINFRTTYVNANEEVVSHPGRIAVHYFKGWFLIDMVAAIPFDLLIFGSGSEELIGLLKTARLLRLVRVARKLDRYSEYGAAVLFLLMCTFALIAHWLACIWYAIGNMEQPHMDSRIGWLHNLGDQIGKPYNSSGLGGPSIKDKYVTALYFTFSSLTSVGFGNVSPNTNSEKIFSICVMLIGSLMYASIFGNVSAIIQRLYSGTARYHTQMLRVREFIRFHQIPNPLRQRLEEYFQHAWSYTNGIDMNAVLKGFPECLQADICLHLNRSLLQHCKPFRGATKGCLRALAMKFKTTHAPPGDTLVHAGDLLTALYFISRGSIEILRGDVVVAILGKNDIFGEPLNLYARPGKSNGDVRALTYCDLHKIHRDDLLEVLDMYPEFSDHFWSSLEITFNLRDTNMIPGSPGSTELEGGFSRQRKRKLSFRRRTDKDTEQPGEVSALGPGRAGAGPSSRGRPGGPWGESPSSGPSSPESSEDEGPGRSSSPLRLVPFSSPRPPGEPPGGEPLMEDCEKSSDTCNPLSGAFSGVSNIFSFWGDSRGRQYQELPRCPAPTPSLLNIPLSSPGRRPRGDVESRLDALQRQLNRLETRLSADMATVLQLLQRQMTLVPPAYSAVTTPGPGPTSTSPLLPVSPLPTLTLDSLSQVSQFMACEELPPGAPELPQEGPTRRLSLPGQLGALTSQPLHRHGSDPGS
wild type MiRP1/HERG channels (Homo sapiens, UniProt Q12809), sequence (Q12809 whole entry): as above
wild type MiRP1/HERG channels (Homo sapiens, UniProt Q12809), sequence (Q9Y6J6 whole entry, further chain): as the sequence (Q9Y6J6 whole entry Q9E) above, with E9Q counted along it
I57T-MiRP1/HERG channels, sequence (Q12809 whole entry): as the sequence (Q12809 whole entry) above
I57T-MiRP1/HERG channels, sequence (Q9Y6J6 whole entry I57T, further chain): as the sequence (Q9Y6J6 whole entry Q9E) above, with E9Q, I57T counted along it
wild type MiRP1/HERG channels (Homo sapiens, UniProt Q12809+Q9Y6J6), sequence (Q12809 whole entry): as the sequence (Q12809 whole entry) above
wild type MiRP1/HERG channels (Homo sapiens, UniProt Q12809+Q9Y6J6), sequence (Q9Y6J6 whole entry): as the sequence (Q9Y6J6 whole entry Q9E) above, with E9Q counted along it

For `O=c1[nH]c2ccccc2n1CCCN1CCN(C(c2ccccc2)c2ccccc2)CC1` [oxatomide], the pKi in data set [1] was 6.37; in data set [3], 5.73. For the same compound, the “Level for half-maximal inhibition relative to plasma (therapeutic) levels in patients” value in data set [2] is given as “close to their therapeutic concentrations”.
As to `CC[C@H]1OC(=O)[C@H](C)[C@@H](O[C@H]2C[C@@](C)(OC)[C@@H](O)[C@H](C)O2)[C@H](C)[C@@H](O[C@@H]2O[C@H](C)C[C@H](N(C)C)[C@H]2O)[C@](C)(OC)C[C@@H](C)C(=O)[C@H](C)[C@@H](O)[C@]1(C)O` [clarithromycin], the “Sensitivity of Q9E-MiRP1 channels to drug inhibition relative to wild type” value in data set [4] is given as “three-fold more sensitive”.
